The text below walks through data of publication PMC12064818, “A general assay platform to study protein pharmacology using ligand-dependent structural dynamics” (Nature Communications, 2025).

In this test the target is T1, FLuc-C-HiBiT (Photinus pyralis, UniProt P08659).
T1 construct: firefly luciferase with C-terminal HiBiT tag, E. coli expressed
T1 sequence (P08659 whole entry, looked up): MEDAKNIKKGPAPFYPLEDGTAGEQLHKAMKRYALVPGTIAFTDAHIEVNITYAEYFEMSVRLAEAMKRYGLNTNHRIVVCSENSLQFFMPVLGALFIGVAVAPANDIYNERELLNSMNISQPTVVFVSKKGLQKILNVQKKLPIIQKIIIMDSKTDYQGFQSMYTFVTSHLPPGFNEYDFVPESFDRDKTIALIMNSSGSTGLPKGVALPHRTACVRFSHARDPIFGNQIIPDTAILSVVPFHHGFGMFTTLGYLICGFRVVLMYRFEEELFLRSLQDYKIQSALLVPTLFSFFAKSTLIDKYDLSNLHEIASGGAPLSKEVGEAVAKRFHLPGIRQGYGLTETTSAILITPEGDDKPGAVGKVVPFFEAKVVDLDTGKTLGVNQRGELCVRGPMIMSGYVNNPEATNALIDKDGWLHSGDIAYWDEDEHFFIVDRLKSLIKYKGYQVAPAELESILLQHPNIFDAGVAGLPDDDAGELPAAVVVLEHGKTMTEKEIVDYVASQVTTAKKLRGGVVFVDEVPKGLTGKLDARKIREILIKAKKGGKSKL
Description: biochemical. As to conditions: enzyme activity, 10 uM ATP; read-out: IC50 or SDR50 (mM) / FLuc E.
As for `Cc1ccc(Nc2c(-c3ccc(N(C)C)cc3)nc3[nH]cnn23)cc1` [NCGC00105887-01], the IC50 is 12.4 µM.
Under `CC1CCC(NC(=O)c2noc(-c3ccccc3F)n2)CC1` (stereo not drawn) [NCGC00447353-01] stands 12.4 µM; under `Cn1ccnc1C(O)c1cc2n(n1)CCN(c1ncnc3[nH]cnc13)C2` (stereo not drawn) [NCGC00422809-01], above 30 µM.
Then `COc1ccc(CNC(=O)Cn2cccc2C(=O)c2ccccc2C)cc1` [NCGC00113808-01], with above 30 µM; and `COc1cccc2cc(-c3nnc(-c4ccc(Cl)cc4)o3)c(=O)oc12` [NCGC00098120-01], with 3.51 µM.
As to `COc1ccccc1-c1nc(-c2ccc(C(=O)O)cc2)no1` [NCGC00168102-02], the IC50 was determined as 1.97 µM.
For the molecule `Cc1cc(-c2nc3ccccc3s2)ccc1NC(=O)c1cc(Cl)ccc1Cl` [NCGC00102363-01], the IC50 is above 30 µM.
Consider `CC1CCCN(c2ncnc3c2cnn3-c2ccc(F)cc2)C1` (stereo not drawn) [NCGC00139051-01], for which the IC50 worked out at 0.7 µM.
Turning to `O=C(NCC(F)(F)F)C1CCCN1c1nc2ncccc2o1` (stereo not drawn) [NCGC00480238-01], the IC50 is above 30 µM.
For the molecule `Cc1ccc(-n2ncc3c(N4CCCCCC4)ncnc32)cc1` [NCGC00139018-01], the IC50 was 0.197 µM.
Then `O=C(c1ccccn1)N1CCC(Oc2ccc(-c3noc(-c4ccccc4)n3)cc2)C1` (stereo not drawn) [NCGC00441001-01], with 11.1 µM; and `Oc1cc(-c2nc3ccccc3s2)cc2c1OCCN(Cc1cccn1-c1nccs1)C2` [NCGC00238878-01], with above 30 µM; and `COc1ccc(C(=O)Nc2onc3c2CCCC3)cc1` [NCGC00115906-01], with 1.97 µM.
Under `Oc1cc(-c2nc3ccccc3s2)cc2c1OCCN(Cc1cccn1-c1ccccn1)C2` [NCGC00240089-01] stands above 30 µM; under `Cc1ccn2c(Nc3ccc(C(C)C)cc3)c(-c3cccs3)nc2c1` [NCGC00106676-01], 11.1 µM; under `CC1CCCN(c2ncnc3c2cnn3-c2ccc(Cl)cc2)C1` (stereo not drawn) [NCGC00081383-02], 0.124 µM.
With `Cc1cc(CNC(=O)C2(C(N)=O)CC2)c2[nH]c(-c3ccccc3)c(C)c2c1` [NCGC00426839-01], the IC50 turned out to be 11.1 µM.
Under `CN(C)c1cccc(C(=O)NC2CCN(c3cc(-c4ccc(Cl)cc4)n[nH]3)C2)c1` (stereo not drawn) [NCGC00437918-01] stands 11.1 µM; under `Cc1c(C(=O)Nc2cccc(-c3nc4ccccc4s3)c2)oc2ccc(F)cc12` [NCGC00119183-01], above 30 µM; under `CC(CCn1cccn1)NC(=O)c1csc2nc(-c3ccc(C(F)(F)F)cc3)cn12` (stereo not drawn) [NCGC00427469-01], 9.89 µM.
As for `O=C(Nc1ccccc1C(=O)O)c1ccccc1` [NCGC00245456-03], the IC50 was 12.4 µM.
Then `Cn1cc(-c2cnc(Nc3ccc(N4CCOCC4)cc3)c3c2CCO3)cn1` [NCGC00412818-01], with 14.3 µM.
Then `CC(=O)N1CCNc2cc(-c3cccc(N4CCOCC4)c3)ncc2C1` [NCGC00411247-01], with 18 µM; and `O=C1c2cnc(-c3ccccc3)nc2OCCN1Cc1ccccc1` [NCGC00413632-01], with above 30 µM; and `Cc1ccc(-c2nc(-c3ccccn3)no2)cc1Cl` [NCGC00070724-01], with 0.624 µM.
Under `CCc1cccc(NC(=O)c2cc(-c3ccc[nH]3)n[nH]2)c1` [NCGC00454482-03] stands 9.89 µM; under `OC1CCCN(c2ccc(-c3nc(-c4cccc(C(F)(F)F)c4)no3)cn2)C1` (stereo not drawn) [NCGC00441254-01], 5.56 µM.
As for `CC(C)(Oc1ccc(-c2nc3cc(Cl)ccc3s2)cc1)C(=O)O` [NCGC00386771-01], the IC50 worked out at 8.81 µM.
Consider `Nc1nc(=O)c2[nH]c(=O)n(C3OC(CO)C(O)C3O)c2[nH]1` (stereo not drawn) [NCGC00390457-01], for which the IC50 was above 30 µM.
Then `Oc1ccc(-c2nc3ccccn3c2Nc2ccc3c(c2)OCCO3)cc1` [NCGC00106600-01], with 17.6 µM.
Then `COc1ccc(/C=C/c2ccc3c(c2)C(=O)N2CC[C@H](NC(=O)CCC(=O)O)[C@H]2C(=O)N3)cc1` [NCGC00391742-01], with 12.4 µM.
Under `OCC1CCCN(c2ncnc3c2cnn3-c2ccccc2)C1` (stereo not drawn) [NCGC00624837-01] stands 0.394 µM.
In the case of `O=C(Nc1cc(Cl)cc(Cl)c1)c1ccn2nccc2c1` [NCGC00477139-01], the IC50 worked out at 18 µM.
As for `Cc1ccc2nc(C(=O)N3CCCC3c3cc(C(C)C)on3)cn2c1` (stereo not drawn) [NCGC00437737-01], the IC50 came out at 15.7 µM.
Under `CCOc1ccc(NC(=O)Nc2cccc(C(=O)O)c2)cc1` [NCGC00689880-01] stands 0.00881 µM.
Then `CN1CCN(c2ccc(-c3cc4c(ccn4C)c(C(=O)NCCC(N)=O)n3)cc2)CC1` [NCGC00411733-01], with 14.3 µM; and `COC(=O)c1c(-c2cccs2)csc1NC(=O)c1ccc(C)cc1` [NCGC00118339-01], with 15.7 µM.
Under `COc1ccc(C(=O)N[C@@H]2CN(C(=O)Nc3ccc(OC(F)(F)F)cc3)CCC[C@H]2O)cc1` [NCGC00401608-01] stands 11.1 µM; under `Cc1ccc(C(=O)Nc2ccc3oc(-c4cccnc4)nc3c2)c(Cl)c1` [NCGC00099674-01], 1.4 µM; under `Cc1ccc(-c2cc3c(=O)n(CCNC(=O)Cc4cccc(F)c4)ccn3n2)c(C)c1` [NCGC00456965-01], 5.56 µM.
For `COc1ccc(C(=O)Nc2ccc3n(c2=O)C[C@H]2C[C@@H]3CN(C(=O)CCCC(=O)O)C2)cc1` [NCGC00397987-01], the IC50 was 15.7 µM.
Then `COc1cc(OC)cc(C(=O)Nc2ccc(-c3nc4ccccc4s3)c(C)c2)c1` [NCGC00137814-01], with above 30 µM.
Turning to `C[C@@H]1C(=O)O[C@H]2[C@H]1CC[C@@]1(C)Cc3sc(NCCc4ccccn4)nc3[C@@H](C)[C@H]21` [NCGC00391315-01], the IC50 came to 16.1 µM.
Under `Cc1ccc(C(=O)Nc2ccc(-c3nc4ccccc4s3)c(O)c2)c(C)c1` [NCGC00134691-01] stands above 30 µM.
As to `Cc1ccc(NC(=O)Nc2ccc(C)n(CC(=O)NCCC(C)C)c2=O)cc1` [NCGC00430794-01], the IC50 was 1.11 µM.
On to `CCc1noc(-c2nc(-c3ccccc3F)no2)n1` [NCGC00450040-01], for which the IC50 came to 15.7 µM.
On to `c1ccc(-c2noc(-c3ccc4ccccc4c3)n2)cc1` [NCGC00045018-01], for which the IC50 was 0.7 µM.
On to `O=C(Nc1ccc2c(c1)OCCO2)N1CCC(c2nc(C3CCOCC3)no2)CC1` [NCGC00453474-01], for which the IC50 was found to be 11.1 µM.
Under `O=C(O)c1cccc(-c2noc(-c3ccccc3Cl)n2)c1` [NCGC00168762-01] stands 0.00351 µM; under `CC(C)(CC(=O)O)CC(=O)N1Cc2nc[nH]c2C[C@H]1c1nc(Cc2ccccc2)no1` [NCGC00396501-01], above 30 µM; under `Cc1ccc(-c2cc(N)n(-c3ccc(C)cc3)n2)cc1` [NCGC00141302-01], 9.89 µM.
Then `O=C(NCCC1CCN(C(=O)Nc2cc(F)cc(F)c2)CC1)c1ccc(F)cc1` [NCGC00425011-01], with above 30 µM; and `O=C(Nc1ccccc1-c1nc2ccccc2s1)c1ccccc1F` [NCGC00636212-01], with above 30 µM.
Under `O=C(COc1ccccc1[N+](=O)[O-])Nc1cccc(-c2nc3ccccc3s2)c1` [NCGC00119155-01] stands above 30 µM; under `COc1ccc(-c2noc([C@@H]3Cc4[nH]cnc4CN3C(=O)Nc3ccc(Cl)cc3)n2)cc1` [NCGC00401634-01], above 30 µM; under `COc1ccc(-c2cc3nc4c(c(=O)n3[nH]2)CN(C(=O)NCc2ccco2)CC4)cc1` [NCGC00440289-01], 11.1 µM.
On to `CC(=O)Nc1cc(-c2nc3ccccc3s2)ccc1C` [NCGC00098099-01], for which the IC50 stood at 7 µM.
Under `COc1ccc(-c2nc3ccccc3s2)cc1NC(=O)COc1cccc(C)c1` [NCGC00102101-01] stands above 30 µM; under `Cc1nn(-c2ccc(C(C)C)cc2)c(C)c1[C@@H]1C=C[C@@H](NC(=O)COCC(=O)O)C1` [NCGC00401626-01], 20.2 µM; under `Cc1ccc(NC(=O)Nc2ccccc2)c(=O)n1CC(=O)NCC1CCCO1` (stereo not drawn) [NCGC00430764-01], 11.1 µM.
Under `COc1ccc2oc(=O)c(C(=O)Nc3cccc(C(=O)O)c3)cc2c1` [NCGC00100698-01] stands 0.0157 µM.
With `Cc1cccn2c(=O)c(C(=O)NCCc3ccccc3)cnc12` [NCGC00137532-01], the IC50 worked out at 7 µM.
Then `C=CCN(C)C(=O)[C@@H](C)C1CC[C@@]2(C)Cc3sc(NC(=O)CN(C)C)nc3[C@@H](C)[C@@H]2[C@H]1O` (stereo partly drawn) [NCGC00421253-01], with above 30 µM; and `CCn1ncc(NC(=O)Cn2ncc3cc(-c4ccc(N(C)C)cc4)ccc32)n1` [NCGC00433406-01], with 0.785 µM.
Then `CN(C)c1cccc(-c2ncc3c(n2)OCCN(c2ccccc2)C3=O)c1` [NCGC00413615-01], with 12.8 µM; and `Cc1ccc(/C=C/c2nc3ccccc3n2S(=O)(=O)c2cccc(Cl)c2)cc1` [NCGC00140605-01], with 0.124 µM.
In the case of `Cc1ccc2cc(CN3CCN(CC(N)=O)CC3)c(-c3cccs3)nc2c1` [NCGC00436639-01], the IC50 stood at 12.4 µM.
Under `O=C(c1ccc2oc(-c3cccc(F)c3)nc2c1)N1CCCCC1CCO` (stereo not drawn) [NCGC00427691-01] stands 14 µM.
Under `COc1ccc(-c2ccc3c(c2)C(=O)N2CC[C@H](NC(=O)c4cccc(F)c4)[C@H]2C(=O)N3)cc1` [NCGC00399389-01] stands 9.89 µM; under `Clc1cccc(-c2nc3ccccc3s2)c1` [NCGC00687703-01], 8.81 µM.
Under `Cc1cccc(OCCc2noc(C3CN(C(=O)Nc4ccc5c(c4)OCCO5)C3)n2)c1` [NCGC00464383-01] stands 7 µM; under `Cc1nn(-c2ccc(C(C)C)cc2)c(C)c1[C@@H]1C=C[C@@H](NC(=O)NC(C)C)C1` [NCGC00399949-01], 18 µM.
For the molecule `CCCc1ccc2oc(C(=O)NCCc3nncn3CC)c(C)c2c1` [NCGC00436423-01], the IC50 was determined as 12.4 µM.
As to `CCNC(=O)C1C(c2cccc(NC(=O)c3ccc(OC)cc3)c2)OC(=O)N1Cc1ccc(C)cc1` (stereo not drawn) [NCGC00474207-01], the IC50 is 3.94 µM.
For `COc1ccc(-c2cn3nc(SCC(=O)Nc4ccccc4F)ccc3n2)cc1` [NCGC00134464-01], the IC50 turned out to be 1.57 µM.
